Numbered stars: 1 amine (or outer) side, 2 acyl side, 3 side chain; on linkers, the order of the positions; unused ones are H or OH. Bridge positions count the residues as written; N and C are the ends. Square brackets hold non-standard residues; d marks the D form. Peptide text beside a SMILES is read from it. Phe(4-guanidino) = N=C(N)Nc1ccc(C[C@H](N)C(=O)O)cc1; Pro(trans-4-Ph) = O=C(O)[C@@H]1C[C@@H](c2ccccc2)CN1; Pro(4R-Bn) = O=C(O)[C@@H]1C[C@@H](Cc2ccccc2)CN1; 2Nal = N[C@@H](Cc1ccc2ccccc2c1)C(=O)O; TBMB = c1c(C[*:1])cc(C[*:3])cc1C[*:2]; Hyp = O=C(O)[C@@H]1C[C@@H](O)CN1; Tic = O=C(O)[C@@H]1Cc2ccccc2CN1; Pen = CC(C)(S)[C@H](N)C(=O)O; Aze = O=C(O)[C@@H]1CCN1; Abu = CC[C@H](N)C(=O)O; Aib = CC(C)(N)C(=O)O
What was measured:
[1] = biological target: T1, human plasma Kallikrein (Homo sapiens, UniProt P03952); test: Functional enzyme inhibition assay, fluorogenic substrate Z-PheArg-AMC; assay type: biochemical; details: for Ki: Ki (nM) (human kallikrein), Ac-06-34-18(TMB)-NH2 series
T1 construct: purchased Stratech, UK
T1 sequence (P03952 20-638): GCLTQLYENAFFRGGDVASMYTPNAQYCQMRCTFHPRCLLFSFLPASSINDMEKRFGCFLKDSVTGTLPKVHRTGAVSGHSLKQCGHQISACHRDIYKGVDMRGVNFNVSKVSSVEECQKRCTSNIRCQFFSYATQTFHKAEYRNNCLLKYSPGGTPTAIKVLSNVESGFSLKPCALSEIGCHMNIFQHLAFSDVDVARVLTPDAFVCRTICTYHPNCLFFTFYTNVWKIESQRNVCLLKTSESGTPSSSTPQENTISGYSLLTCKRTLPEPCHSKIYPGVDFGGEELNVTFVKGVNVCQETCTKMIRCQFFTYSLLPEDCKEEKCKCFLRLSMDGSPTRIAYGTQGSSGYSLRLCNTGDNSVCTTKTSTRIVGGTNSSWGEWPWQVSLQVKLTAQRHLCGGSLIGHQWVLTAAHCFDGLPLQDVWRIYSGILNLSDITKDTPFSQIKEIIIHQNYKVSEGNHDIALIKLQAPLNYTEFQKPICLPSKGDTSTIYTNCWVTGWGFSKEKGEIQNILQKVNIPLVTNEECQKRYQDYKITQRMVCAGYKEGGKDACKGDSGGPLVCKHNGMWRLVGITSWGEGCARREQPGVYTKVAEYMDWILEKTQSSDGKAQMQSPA
Description: Peptides were dissolved as the TFA-salts in their powder form, and stock solutions were usually prepared in water. All solutions were centrifuged and filtered ([…] syringe filters) prior absorption measurement at 280 nm. […] For peptides containing non-natural amino acids with suspected chromophoric properties (i.e. NorHar, 4PhenylPro, 3PaI, 4PaI, Tic, 4GuanPhe, 4,4-BPAI, 3,3-DPA, 1NAI, 2NAI, 4BenzylPro, Ind) concentrations were determined by weighing the powder and dissolving the peptide in a defined quantity of water.

[2] = Plasma stability profiling method 1 (35% plasma, MALDI-TOF, qualitative); assay type: in vitro ADME, rat; details: for Observable in rat plasma, for days: 35% rat plasma, 37 deg C, method 1, comparative estimate; for rat plasma stability: method 1
Description: Three methods were employed to assess the stability of bicycles (peptides conjugated to molecular scaffolds) in plasma.
A rapid plasma stability profiling assay was developed that employed mass spectrometric detection (MALDI-TOF, Voyager DE, Applied Biosystems) of the parent mass, until the time when the parent peptide mass was no longer observable. Specifically, 200 uM of peptide was incubated in the presence of 35% rat or human plasma (Sera labs, using citrate as anticoagulant) at 37 deg C., which was supplemented with 1×PBS (derived from a 10×PBS Stock, Sigma). At various time points (i.e. t=0, 3, 24 hrs, henceafter daily up to 10 days), 2 uL of sample was added to 18 uL of 30 mM ammonium bicarbonate in a 1:1 mixture of acetonitrile:H2O. Samples were frozen at −80 deg C. until the time of analysis. For mass spectrometric analysis that determines the approximate detection window of the peptide, the acetonitrile:H2O-diluted sample of a given time point was spotted directly (0.7 uL) onto the MALDI plate. Matrix (alpha-cyanocinnamic acid, Sigma, prepared as a saturated solution in 1:1 acetonitrile:water containing 0.1% trifluoroacetic acid) was layered over the sample (1 uL). At a similar laser intensity setting on the MALDI TOF, the time could then be determined until parent peptide was no longer detectable. It should be noted that this is a qualitative assay serves to detect relative changes in plasma stability.

SMILES: CC(=O)N[C@H]1CSCc2cc3cc(c2)CSC[C@H](NC(=O)[C@H](CCCNC(=N)N)NC(=O)[C@H](C)NC(=O)[C@@H]2CCCN2C(=O)[C@H](Cc2ccc4ccccc4c2)NC(=O)[C@H](CO)NC1=O)C(=O)N[C@@H](CC(C)C)C(=O)N[C@@H](Cc1c[nH]cn1)C(=O)N[C@@H](CCC(N)=O)C(=O)N[C@@H](CC(=O)O)C(=O)N[C@@H](CC(C)C)C(=O)N[C@H](C(N)=O)CSC3 [Ac-(06-34-18) 2NAL2] (Ac-CS[2Nal]PARCLHQDLC-NH2; linker 1-7-13 via TBMB)
- Ki [1]: 0.5 nM
- Observable in rat plasma, for days [2]: 2 days

SMILES: CC(=O)N[C@H]1CSCc2cc3cc(c2)CSC[C@H](NC(=O)[C@H](CCCNC(=N)N)NC(=O)[C@H](C)NC(=O)[C@@H]2C[C@@H](Cc4ccccc4)CN2C(=O)[C@H](Cc2c[nH]c4ccccc24)NC(=O)[C@H](CO)NC1=O)C(=O)N[C@@H](CC(C)C)C(=O)N[C@@H](Cc1c[nH]cn1)C(=O)N[C@@H](CCC(N)=O)C(=O)N[C@@H](CC(=O)O)C(=O)N[C@@H](CC(C)C)C(=O)N[C@H](C(N)=O)CSC3 [Ac-(06-34-18) 4Benzyl Pro3] (Ac-CSW[Pro(4R-Bn)]ARCLHQDLC-NH2; linker 1-7-13 via TBMB)
- Ki [1]: 191 nM
- Observable in rat plasma, for days [2]: 2 days

SMILES: CC(=O)N[C@H]1CSCc2cc3cc(c2)CSC[C@H](NC(=O)[C@H](CCCNC(=N)N)NC(=O)[C@H](C)NC(=O)[C@@H]2C[C@@H](c4ccccc4)CN2C(=O)[C@H](Cc2c[nH]c4ccccc24)NC(=O)[C@H](CO)NC1=O)C(=O)N[C@@H](CC(C)C)C(=O)N[C@@H](Cc1c[nH]cn1)C(=O)N[C@@H](CCC(N)=O)C(=O)N[C@@H](CC(=O)O)C(=O)N[C@@H](CC(C)C)C(=O)N[C@H](C(N)=O)CSC3 [Ac-(06-34-18) 4Phenyl Pro3] (Ac-CSW[Pro(trans-4-Ph)]ARCLHQDLC-NH2; linker 1-7-13 via TBMB)
- Ki [1]: 0.58 nM
- Observable in rat plasma, for days [2]: 2 days

SMILES: CC[C@@H]1NC(=O)[C@@H]2CCCN2C(=O)[C@H](Cc2c[nH]c3ccccc23)NC(=O)[C@H](CO)NC(=O)[C@@H](NC(C)=O)CSCc2cc3cc(c2)CSC[C@H](NC(=O)[C@H](CCCNC(=N)N)NC1=O)C(=O)N[C@@H](CC(C)C)C(=O)N[C@@H](Cc1c[nH]cn1)C(=O)N[C@@H](CCC(N)=O)C(=O)N[C@@H](CC(=O)O)C(=O)N[C@@H](CC(C)C)C(=O)N[C@H](C(N)=O)CSC3 [Ac-(06-34-18) Aba4] (Ac-CSWP[Abu]RCLHQDLC-NH2; linker 1-7-13 via TBMB)
- Ki [1]: 0.07 nM
- Observable in rat plasma, for days [2]: 2 days

SMILES: CC(=O)N[C@H]1CSCc2cc3cc(c2)CSC[C@H](NC(=O)[C@H](CCCNC(=N)N)NC(=O)[C@H](C)NC(=O)C(C)(C)NC(=O)[C@H](Cc2c[nH]c4ccccc24)NC(=O)[C@H](CO)NC1=O)C(=O)N[C@@H](CC(C)C)C(=O)N[C@@H](Cc1c[nH]cn1)C(=O)N[C@@H](CCC(N)=O)C(=O)N[C@@H](CC(=O)O)C(=O)N[C@@H](CC(C)C)C(=O)N[C@H](C(N)=O)CSC3 [Ac-(06-34-18) Aib3] (Ac-CSW[Aib]ARCLHQDLC-NH2; linker 1-7-13 via TBMB)
- Ki [1]: 1.2 nM
- Observable in rat plasma, for days [2]: 2 days

SMILES: CC(=O)N[C@H]1CSCc2cc3cc(c2)CSC[C@H](NC(=O)[C@H](CCCNC(=N)N)NC(=O)C(C)(C)NC(=O)[C@@H]2CCCN2C(=O)[C@H](Cc2c[nH]c4ccccc24)NC(=O)[C@H](CO)NC1=O)C(=O)N[C@@H](CC(C)C)C(=O)N[C@@H](Cc1c[nH]cn1)C(=O)N[C@@H](CCC(N)=O)C(=O)N[C@@H](CC(=O)O)C(=O)N[C@@H](CC(C)C)C(=O)N[C@H](C(N)=O)CSC3 [Ac-(06-34-18) Aib4] (Ac-CSWP[Aib]RCLHQDLC-NH2; linker 1-7-13 via TBMB)
- Ki [1]: 289 nM
- Observable in rat plasma, for days [2]: 7 days

SMILES: CC(=O)N[C@H]1CSCc2cc3cc(c2)CSC[C@H](NC(=O)[C@H](Cc2ccc(NC(=N)N)cc2)NC(=O)[C@H](C)NC(=O)[C@@H]2CCN2C(=O)[C@H](Cc2c[nH]c4ccccc24)NC(=O)[C@H](CO)NC1=O)C(=O)N[C@@H](CC(C)C)C(=O)N[C@@H](Cc1c[nH]cn1)C(=O)N[C@@H](CCC(N)=O)C(=O)N[C@@H](CC(=O)O)C(=O)N[C@@H](CC(C)C)C(=O)N[C@H](C(N)=O)CSC3 [Ac-(06-34-18) Aze3 4GuanPhe5] (Ac-CSW[Aze]A[Phe(4-guanidino)]CLHQDLC-NH2; linker 1-7-13 via TBMB)
- Ki [1]: 0.17 nM
- Observable in rat plasma, for days [2]: >10 days

SMILES: CC(=O)N[C@H]1CSCc2cc3cc(c2)CSC[C@H](NC(=O)[C@H](CCCNC(=N)N)NC(=O)[C@H](C)NC(=O)[C@@H]2CCN2C(=O)[C@H](Cc2c[nH]c4ccccc24)NC(=O)[C@H](CO)NC1=O)C(=O)N[C@@H](CC(C)C)C(=O)N[C@@H](Cc1c[nH]cn1)C(=O)N[C@@H](CCC(N)=O)C(=O)N[C@@H](CC(=O)O)C(=O)N[C@@H](CC(C)C)C(=O)N[C@H](C(N)=O)CSC3 [Ac-(06-34-18) Aze3] (Ac-CSW[Aze]ARCLHQDLC-NH2; linker 1-7-13 via TBMB)
- affinity surpassing that of wildtype by a factor ([1]; vs Ac-06-34-18(TMB)-NH2): 3
- Observable in rat plasma, for days [2]: 2 days

SMILES: CC(=O)N[C@H]1CSCc2cc3cc(c2)CSC(C)(C)[C@H](NC(=O)[C@H](CCCNC(=N)N)NC(=O)[C@H](C)NC(=O)[C@@H]2CCCN2C(=O)[C@H](Cc2c[nH]c4ccccc24)NC(=O)[C@H](CO)NC1=O)C(=O)N[C@@H](CC(C)C)C(=O)N[C@@H](Cc1c[nH]cn1)C(=O)N[C@@H](CCC(N)=O)C(=O)N[C@@H](CC(=O)O)C(=O)N[C@@H](CC(C)C)C(=O)N[C@H](C(N)=O)CSC3 [Ac-(06-34-18) Cys2ToPen2] (Ac-CSWPAR[Pen]LHQDLC-NH2; linker 1-7-13 via TBMB)
- potency against human plasma Kallikrein compared to parent [1]: potency dropped significantly
- Observable in rat plasma, for days [2]: 5 days
- rat plasma stability [2]: slightly enhanced

SMILES: CC(=O)N[C@H]1CSCc2cc3cc(c2)CSC[C@H](NC(=O)[C@H](CCCNC(=N)N)NC(=O)[C@H](C)NC(=O)[C@@H]2CCCN2C(=O)[C@H](Cc2ccccc2)NC(=O)[C@H](CO)NC1=O)C(=O)N[C@@H](CC(C)C)C(=O)N[C@@H](Cc1c[nH]cn1)C(=O)N[C@@H](CCC(N)=O)C(=O)N[C@@H](CC(=O)O)C(=O)N[C@@H](CC(C)C)C(=O)N[C@H](C(N)=O)CSC3 [Ac-(06-34-18) FPAR] (Ac-CSFPARCLHQDLC-NH2; linker 1-7-13 via TBMB)
- loss in potency / reduction in affinity compared to wildtype ([1]; vs Ac-06-34-18(TMB)-NH2): 40 fold
- Observable in rat plasma, for days [2]: 2 days

SMILES: CC(=O)N[C@H]1CSCc2cc3cc(c2)CSC[C@H](NC(=O)[C@H](CCCNC(=N)N)NC(=O)[C@H](C)NC(=O)[C@@H]2C[C@@H](O)CN2C(=O)[C@H](Cc2c[nH]c4ccccc24)NC(=O)[C@H](CO)NC1=O)C(=O)N[C@@H](CC(C)C)C(=O)N[C@@H](Cc1c[nH]cn1)C(=O)N[C@@H](CCC(N)=O)C(=O)N[C@@H](CC(=O)O)C(=O)N[C@@H](CC(C)C)C(=O)N[C@H](C(N)=O)CSC3 [Ac-(06-34-18) HyP3] (Ac-CSW[Hyp]ARCLHQDLC-NH2; linker 1-7-13 via TBMB)
- Ki [1]: 0.41 nM
- Observable in rat plasma, for days [2]: 2 days

SMILES: CC(=O)N[C@H]1CSCc2cc3cc(c2)CSC[C@H](NC(=O)[C@H](CCCNC(=N)N)N(C)C(=O)[C@H](C)NC(=O)[C@@H]2CCCN2C(=O)[C@H](Cc2c[nH]c4ccccc24)NC(=O)[C@H](CO)NC1=O)C(=O)N[C@@H](CC(C)C)C(=O)N[C@@H](Cc1c[nH]cn1)C(=O)N[C@@H](CCC(N)=O)C(=O)N[C@@H](CC(=O)O)C(=O)N[C@@H](CC(C)C)C(=O)N[C@H](C(N)=O)CSC3 [Ac-(06-34-18) NMeArg5]
- loss in potency / reduction in affinity compared to wildtype ([1]; vs Ac-06-34-18(TMB)-NH2): 20 fold
- rat plasma stability [2]: exceeds the assay time

SMILES: CC(=O)N[C@H]1CSCc2cc3cc(c2)CSC[C@H](NC(=O)[C@H](CCCNC(=N)N)NC(=O)[C@H](C)NC(=O)[C@@H]2Cc4ccccc4CN2C(=O)[C@H](Cc2c[nH]c4ccccc24)NC(=O)[C@H](CO)NC1=O)C(=O)N[C@@H](CC(C)C)C(=O)N[C@@H](Cc1c[nH]cn1)C(=O)N[C@@H](CCC(N)=O)C(=O)N[C@@H](CC(=O)O)C(=O)N[C@@H](CC(C)C)C(=O)N[C@H](C(N)=O)CSC3 [Ac-(06-34-18) Tic3] (Ac-CSW[Tic]ARCLHQDLC-NH2; linker 1-7-13 via TBMB)
- Ki [1]: 13.5 nM
- Observable in rat plasma, for days [2]: 2 days

SMILES: CC(C)C[C@@H]1NC(=O)[C@H](CC(=O)O)NC(=O)[C@H](CCC(N)=O)NC(=O)[C@H](Cc2c[nH]cn2)NC(=O)[C@H]([C@@H](C)O)NC(=O)[C@@H]2CSCc3cc(cc(c3)CSC[C@@H](C(=O)N[C@@H](C)C(N)=O)NC1=O)CSC[C@H](NC(=O)[C@H](C)N)C(=O)N[C@@H](CCCNC(=N)N)C(=O)N[C@@H](Cc1c[nH]c3ccccc13)C(=O)N1CCC[C@H]1C(=O)N[C@@H](C)C(=O)N[C@@H](CCCNC(=N)N)C(=O)N2 [Peptide 06-34-02] (H-ACRWPARCTHQDLCA-NH2; linker 2-8-14 via TBMB)
- IC50 [1]: 0.16 nM
